Test results: patent US9708310B2, “Phenanthroindolizidine and phenanthroquinolizidine alkaloid having a hydroxyl group on the phenanthrene ring thereof, preparation method and use thereof” (CHINA MEDICAL UNIVERSITY, priority 2015, dated 2017)
In brackets after ≈: the same amount, converted by molar mass.

Experiments:
[1] = early clinical trial; cited from earlier work
[2] = tested on: prostate carcinoma (DU145) cells; experiment: Cell viability (MTT) assay, DU145; assay type: cell-based, human
Procedure: (§1) 8. Typical Procedure for Cell Viability Assay
(§2) The breast carcinoma (MCF-7), lung carcinoma (H1299), and prostate carcinoma (DU145) cells were first plated at a density of 5×10^3 cells per well in 96-well plates for overnight and then treated with different concentrations of these compounds. After 48 h of treatment, 100 µL of MTT solution was added to each well and the cells were incubated for 1 h at 37° C. Then, the MTT solution was completely removed and […] of DMSO was added to solubilize the MTT formazan crystals. Finally, the absorbance was measured using a MQX200R microplate reader (BioTek, VT, USA) at a wavelength of 550 nm.

[3] = tested on: breast carcinoma (MCF-7) cells; experiment: Cell viability (MTT) assay, MCF-7; assay type: cell-based, human
Procedure: as §1, §2

[4] = tested on: lung carcinoma (H1299) cells; experiment: Cell viability (MTT) assay, H1299; assay type: cell-based, human
Procedure: as §1, §2

[5] = Solubility in the dosing solvent system; details: 2.5% DMSO, 2.5% EtOH, 5% Cremophor EL, and 90% normal saline
[6] = tested on: normal human lung fibroblast cell line, MRC-5; experiment: Cytotoxicity against normal lung fibroblasts MRC-5; assay type: cell-based; details: MRC5
[7] = physchem; details: aqueous with cosolvent or surfactant or cyclodextrin
[8] = tested on: cyclin D1, CDK4, cyclin E, CDK2, cyclin B1, and CDK1; experiment: Western blot of H1299 cell cycle associated protein; assay type: cell-based, human; details: H1299 cells, 7, 14, and 21 nM, 12, 24, and 48 h
Procedure: 9. The Effect of Compound 20 on H1299 Cell Cycle Associated Protein
9.1 Western Blot Analysis
H1299 cells were first seeded at a density of 3×10^5 cells per well in six-well plates overnight and then treated with compound 20 at three different concentrations (7, 14, and 21 nM) for 12, 24, and 48 h. The cells were washed with PBS buffer and lysed in ice-cold RIPA buffer for 30 min. The supernatant was collected and centrifuged at 15,000 rpm at 4° C. for 30 min. The protein concentration was measured with a Bio-Rad assay using a MQX200R microplate reader (BioTek, VT, USA). The cell lysates were separated by 10% SDS-PAGE and electrophoretically transferred onto polyvinylidene difluoride (PVDF) membranes (Millipore, Bedford, Mass.). After several washes, the membranes were blocked with 5% skim milk in TBST (tris-buffered saline containing 0.1% Tween-20) at room temperature for 1 h and incubated with different primary antibodies against cyclin D1, CDK4, cyclin E, CDK2, cyclin B1, and CDK1 (1:2000 dilution) at 4° C. for overnight. […] After washing three times in TBST, the bound antibody was visualized using ECL Western Blotting Reagent (PerkinElmer, Boston), and chemiluminescence was detected using a Fuji Medical X-ray film (Tokyo, Japan).
All the data were expressed as means±SEM for three replicate experiments. […]

[9] = tested on: female athymic nude mice; experiment: Rotarod test for motor coordination (neurotoxicity); assay type: in vivo; details: i.p., 20 at 10 mg/kg vs 5i at 0.08 mg/kg, 15 administrations, 5 rpm, three consecutive days
Text: 10. Rotarod Test for Motor Coordination
The protocol of rotarod test was based on those described in the literature [Y. Z. Lee, C. W Yang, H. Y. Hsu, Y. Q. Qiu, T. K. Yeh, H. Y. Chang, et al., J. Med. Chem. 2012, 55, 10363-10377] with slight modifications. Eight week-old female athymic nude mice were used. All the animal experiments followed ethical standards, and the protocols have been reviewed and approved by the Animal Care and Use Committee of China Medical University (IACUC approval no: 102-235-N). The mice were randomly divided into two groups (n=3) and treated with compound 20 (10 mg/kg) or 7-methoxycryptopleurine 5i (0.08 mg/kg) intraperitoneally. The compounds were dissolved in a mixture of 2.5% DMSO, 2.5% EtOH, 5% Cremophor EL, and 90% normal saline. Each group was administered once daily, five days per week for 15 times in total. After 15 administrations of the compounds, the mice were placed on the rotarod apparatus for training (day 1) and test (days 2-4) with the rod set in motion at a constant speed of 5 rpm. The latency time to fall from the rotating rod was recorded for a maximum of 180 s.

[10] = tested on: MCF-7, H1299, DU145 cancer cell lines; assay type: cell-based, human
Procedure: as §2
The cytotoxic activities of 18 compounds 4a-i and 5a-i were evaluated against three human cancer cell lines, breast carcinoma (MCF-7), lung carcinoma (H1299), and prostate carcinoma (DU145), using tylophorine (4i) and 7-methoxycryptopleurine (5i) for comparison. […] In the phenanthroindolizidine series, the IC50 ratio of compounds 4a-h to tylophorine (4i) followed the order: 4a˜4h˜4e>4f>>4b˜[…]>4d>4g; however, in the phenanthroquinolizidine series, the IC50 ratio of compounds 5a-h to 7-methoxycryptopleurine (5i) followed the order: 5c˜5a˜5h˜5b>>5f˜5d>5e>5g. […] Based on the SAR results, a more polar phenanthroquinolizidine, 7-hydroxycryptopleurine (20), was designed and synthesized to decrease the CNS toxicity and increase the water solubility. […]

[11] = tested on: rats; details: high doses; cited from earlier work
[12] = cited from earlier work
[13] = predicted by PreADMET; cited from earlier work
[14] = Homo sapiens, DU-145, 48 h treatment
[15] = Homo sapiens, MCF7, 48 h treatment
[16] = Homo sapiens, NCI-H1299, 48 h treatment

Compound | IC50 [2, 14] [nM] | IC50 [3, 15] [nM] | IC50 [4, 16] [nM] | melting point | IC50 ([2]; 48 h treatment) [nM] | IC50 ([3]; 48 h treatment) [nM] | IC50 ([4]; 48 h treatment) [nM] | other results
COc1cc2c3c(c4ccc(OC)c(OC)c4c2cc1OC)CN1CCC[C@@H]1C3 [Compound 2, (R)-tylocrebrine] |  |  |  |  |  |  |  | clinical trial outcome [1]: failed in the early clinical trial owing to CNS toxicity
COc1cc2c3c(c4c(OC)c(OC)c(OC)cc4c2cc1OC)CC1CCCCN1C3 (centres unmarked) [Compound 5a, 1,2,3,6,7-Pentamethoxy-10,11,12,13,13a,14-hexahydro-9H-9a-azabenzo[b]triphenylene] | 272 | 276 | 252 | 191 to 192 °C |  |  |  | 
COc1ccc2c3c(c4cc(OC)c(OC)cc4c2c1)CN1CCCCC1C3 (centres unmarked) [Compound 5b, Boehmeriasin A] |  |  |  |  | 184 | 272 | 211 | 
COc1cc2c3c(c4cc(OC)c(OC)cc4c2cc1OC)CN1CCCCC1C3 (centres unmarked) [Compound 5i, 7-Methoxycryptopleurine] |  |  |  |  | 4.5 | 10.7 | 7.1 | solubility in the solvent system [5]: less than 0.08 mg/mL
COc1ccc2c3c(c4cc(OC)c(OC)cc4c2c1)C[C@H]1CCCCN1C3 [Compound 5g, Cryptopleurine] |  |  |  |  | 4.6 | 11.3 | 9 | 
COc1cc2c(cc1O)c1c(c3cc(OC)c(OC)cc32)CC2CCCCN2C1 (centres unmarked) [Compound 20, 7-Hydroxy-2,3,6-trimethoxy-10,11,12,13,13a,14-hexahydro-9H-9a-azabenzo[b]triphenylene] | 4.4 | 6.4 | 5.2 | 114 to 115 °C |  |  |  | IC50 [6]: 26 nM; solubility [7]: ~1300 µg/mL (≈ 3.3 mM); cell cycle associated protein expression [8]: decrease in cyclin D1-cdk4, cyclin E-cdk2, and cyclin B1-cdk1 expression; motor coordination (neurotoxicity), rotarod [9]: better motor coordination than the compound 5i-treated group
COc1ccc2c3c(c4cc(OC)c(OC)cc4c2c1)C[C@H]1CCCN1C3 [Compound 4g, Antofine] |  |  |  |  | 30.3 | 42.4 | 32.5 | 
COc1ccc2c(c1)c1c(c3cc(OC)c(OC)cc32)CC2CCCCN2C1 (centres unmarked) [Compound 5f, 2,3,7-Trimethoxy-10,11,12,13,13a,14-hexahydro-9H-9a-azabenzo[b]triphenylene] | 41.8 | 68.7 | 57.3 | 156 to 158 °C |  |  |  | fold increase in the cytotoxicity relative to compound 4f [10]: 28-36 fold
COc1cc2c3c(c4c(OC)c(OC)c(OC)cc4c2cc1OC)CC1CCCN1C3 (centres unmarked) [Compound 4a, 1,2,3,6,7-Pentamethoxy-11,12,12a,13-tetrahydro-10H-9a-azacyclopenta[b]triphenylene] | > 2500 | > 2500 | > 2500 | 225 to 226 °C |  |  |  | 
COc1ccc2c3c(c4cc(OC)c(OC)cc4c2c1)CN1CCC[C@H]1C3 [Compound 4b, Deoxypergularinine] |  |  |  |  | 176 | 305 | 235 | 
COc1cc2c3c(c4c(OC)c(OC)c(OC)cc4c2cc1OC)CN1CCCC1C3 (centres unmarked) [Compound 4h, 2,3,6,7,8-Pentamethoxy-11,12,12a,13-tetrahydro-10H-9a-azacyclopenta[b]triphenylene] | > 2500 | > 2500 | > 2500 | 231 °C (dec.) |  |  |  | 
COc1ccc2c(c1)c1c(c3cc(OC)c(OC)cc32)CN2CCCC2C1 (centres unmarked) [Compound 4c, 2,6,7-Trimethoxy-11,12,12a,13-tetrahydro-10H-9a-azacyclopenta[b]triphenylene] | 2150 | 2480 | > 2500 | 187 to 189 °C |  |  |  | 
COc1ccc2c(c1)c1c(c3cc(OC)c(OC)cc32)CN2CCCCC2C1 (centres unmarked) [Compound 5c, 2,6,7-Trimethoxy-10,11,12,13,13a,14-hexahydro-9H-9a-azabenzo[b]triphenylene] | 279 | 392 | 314 | 182 to 184 °C |  |  |  | 
COc1cc2c3c(c4c(OC)c(OC)c(OC)cc4c2cc1OC)CN1CCCCC1C3 (centres unmarked) [Compound 5h, 2,3,6,7,8-Pentamethoxy-10,11,12,13,13a,14-hexahydro-9H-9a-azabenzo[b]triphenylene] | 215 | 277 | 232 | 211 °C (dec.) |  |  |  | 
Desmethoxytylophorine [Compound 4f] |  |  |  |  | 1510 | 1910 | 2020 | 
COc1cc2c3c(c4cc(OC)c(OC)c(OC)c4c2cc1OC)CC1CCCCN1C3 (centres unmarked) [Compound 5d, 4,7-Dimethoxycryptoplerine] |  |  |  |  | 35.7 | 61.9 | 54.4 | 
COc1cc2c3c(c4cc(OC)c(OC)c(OC)c4c2cc1OC)CN1CCCCC1C3 (centres unmarked) [Compound 5e, 2,3,5,6,7-Pentamethoxy-10,11,12,13,13a,14-hexahydro-9H-9a-azabenzo[b]triphenylene] | 23.8 | 19.3 | 27.6 | 166 to 167 °C |  |  |  | 
COc1cc2c3c(c4cc(OC)c(OC)c(OC)c4c2cc1OC)CC1CCCN1C3 (centres unmarked) [Compound 4d, 4-Methoxytylophorine] |  |  |  |  | 58.8 | 61.2 | 54.1 | 
COc1cc2c3c(c4cc(OC)c(OC)c(OC)c4c2cc1OC)CN1CCCC1C3 (centres unmarked) [Compound 4e, 2,3,5,6,7-Pentamethoxy-11,12,12a,13-tetrahydro-10H-9a-azacyclopenta[b]triphenylene] | 150 | 224 | 165 | 169 to 170 °C |  |  |  | 
COc1cc2c3c(c4cc(OC)c(OC)cc4c2cc1OC)CN1CCC[C@@H]1C3 [Compound 4i, Tylophorine] |  |  |  |  | 28.3 | 41.1 | 30.9 | 
COc1cc2c3c(c4cc(OC)c(OC)cc4c2cc1OC)CN1CCC[C@@H]1C3 [Compound 1, (R)-tylophorine] |  |  |  |  |  |  |  | CNS side effects [11]: caused central nervous system (CNS) side effects; water solubility [12]: low
COc1ccc2c3c(c4cc(OC)c(OC)cc4c2c1)C[C@H]1C[C@H](O)CCN1C3 [Compound 3] |  |  |  |  |  |  |  | BBB penetration [13]: significantly reduced the BBB penetration
